Source: patent US12558428B2, “Heterobifunctional compounds and their use in treating disease” (Halda Therapeutics OpCo, Inc., priority 2024, dated 2026)
Read-outs that look alike come from different tables or passages of the source.

Experiments:
Assay type in all cases: cell-based
[1] = test system: T-Rex 293 cells having increased expression of estrogen receptor alpha protein; assay: Cellular growth inhibition assay, T-Rex 293 cells, (+) doxycycline; details: T-REx-293, 72 h, 72 hours
Summary of the method: (§1)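 Viability read-out was CellTiter-Glo 2.0 luminescence after 72 h compound exposure, normalized to zero luminescence and fitted by four-parameter regression to give GI50. Cells were an ERα-inducible T-Rex 293 clone cultured with or without 3 ng/mL doxycycline in charcoal-stripped, phenol red-free medium.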

[2] = test system: T-Rex 293 cells lacking increased expression of estrogen receptor alpha protein; assay: Cellular growth inhibition assay, T-Rex 293 cells, (−) doxycycline; details: T-REx-293, 72 h, 72 hours
Summary of the method: as §1

[3] = test system: MCF7 cells (ATCC #HTB-22); assay: Cellular growth inhibition assay, MCF7 cells purchased from ATCC; details: Homo sapiens, MCF7, 144 h, Table 8-A; MCF7 cells purchased from ATCC; six days; CellTiter-Glo; read-out: GI50
Experimental: Exemplary compounds were tested for the ability to inhibit the proliferation of MCF7 cells.
MCF7 cells (ATCC #HTB-22 or ECACC #86012803) were cultured in RPMI 1640 medium supplemented with 10% heat-inactivated fetal bovine serum, 1% pen-strep, and 0.2 U/ml insulin. Cells were seeded in 25 μL of RPMI 1640 medium supplemented with 10% heat-inactivated fetal bovine serum, 1% pen-strep, 0.2 U/ml insulin in poly-D-lysine treated, black clear-bottom 384-well plates at 225 cells/well for MCF7 cells purchased from ECACC or 1,500 cells/well for MCF7 cells purchased from ATCC. Following seeding, plates were spun at 300×g for 30 seconds and cultured at 37° C. with 5% CO2 in a humidified tissue culture incubator.
At 24 hours after seeding, compounds were titrated in 100% DMSO and diluted in RPMI 1640 medium supplemented with 10% heat-inactivate fetal bovine serum, 1% pen-strep, and 0.2 U/ml insulin. A 25 μL aliquot of the compound/media mixture was added to cells, bringing the total volume in each well to 50 μL. An equal volume of DMSO without compound was used as a negative control. After treatment, plates were spun at 300×g for 30 seconds, then cultured at 37° C. with 5% CO2 for six days in a humidified tissue culture incubator.
On Day 6 of treatment, cell viability was quantified with CellTiter-Glo 2.0 reagent (Promega). Plates were equilibrated to room temperature for 30 minutes, then 25 μL of CellTiter-Glo 2.0 reagent was added to cells, bringing the total volume in each well to 75 μL. After reagent was added, plates were mixed on a shaker for two minutes at 500 rpm and then incubated at room temperature for 10 minutes. Following incubation, plates were spun at 3,000×g for 30 seconds, sealed with an optical adhesive cover, and luminescence readings were measured with an EnVision Plate Reader.
Data was normalized to 0 luminescence for baseline. A four-parameter, non-linear regression curve fit was applied to dose-response data in GraphPad Prism data analysis software to determine the half maximal growth inhibitory concentration (GI50) for each compound.

[4] = Table 7-A, T-Rex 293 cells with doxycycline (increased ERα expression), CellTiter-Glo, read-out: (+) Dox GI50
[5] = Table 7-A, T-Rex 293 cells without doxycycline (lacking increased ERα expression), CellTiter-Glo, read-out: (−) Dox GI50
[6] = T-Rex 293 cells with doxycycline-induced ERα expression, CellTiter-Glo 2.0, read-out: (+) Dox TRex ERa (GI50)
[7] = T-Rex 293 cells without doxycycline, CellTiter-Glo 2.0, read-out: (−) Dox TRex ERa (GI50)

Row | GI50 [3] | Structure (SMILES) | GI50 [1, 4] | GI50 [2, 5] | GI50 [1, 6] | GI50 [2, 7]
1 | 50 to 500 nM | Cc1sc2c(c1C)C(c1ccc(N3CCC(CN4CCN(c5cc(F)c([C@@H]6c7ccc(O)cc7CC[C@@H]6c6ccccc6)cc5F)CC4)CC3)cc1)=N[C@@H](C)c1nnc(C)n1-2 [III-317] | < 50 nM | 50 to 500 nM |  | 
2 | 50 to 500 nM | Cc1sc2c(c1C)C(c1ccc(N3CCC(F)(CN4CCC(c5ccc(C6=C(c7ccc(Cl)cc7Cl)CCCc7cc(C(=O)O)ccc76)cc5)CC4)CC3)cc1)=N[C@@H](C)c1nnc(C)n1-2 [IV-21] | < 50 nM | 500 to 2500 nM |  | 
3 | 50 to 500 nM | Cc1sc2c(c1C)C(c1ccc(N3CC(CN4CC(CN5CC(c6ccc([C@@H]7c8ccc(O)cc8CC[C@@H]7c7ccccc7)cc6)C5)C4)C3)cc1)=N[C@@H](C)c1nnc(C)n1-2 [III-219] | < 50 nM | 50 to 500 nM |  | 
4 | < 50 nM | Cc1sc2c(c1C)C(c1ccc(N3CCC(O)(CN4CCN(c5ccc([C@@H]6c7ccc(O)cc7CC[C@@H]6c6ccc(F)cc6)c(Cl)c5)CC4)CC3)cc1)=N[C@@H](C)c1nnc(C)n1-2 [III-305] | < 50 nM | 500 to 2500 nM |  | 
5 | 50 to 500 nM | Cc1sc2c(c1C)C(c1ccc(N3CCC4(CCN(c5ccc([C@@H]6c7ccc(O)cc7CC[C@@H]6c6ccccc6)cc5)CC4)C3)cc1)=N[C@@H](C)c1nnc(C)n1-2 [III-120] | > 2500 nM | 500 to 2500 nM |  | 
6 | < 50 nM | Cc1sc2c(c1C)C(c1ccc(N3CCC(CN4CCN(c5ccc(C6=C(c7ccccc7Cl)CCCc7cc(C(=O)O)ccc76)c(F)c5)CC4)CC3)cc1)=N[C@@H](C)c1nnc(C)n1-2 [IV-48] | < 50 nM | 500 to 2500 nM |  | 
7 | 50 to 500 nM | Cc1sc2c(c1C)C(c1ccc(C3CN(CC4CCN(c5ccc([C@@H]6c7ccc(O)cc7CC[C@@H]6c6ccccc6)cc5)CC4)C3)cc1)=N[C@@H](C)c1nnc(C)n1-2 [III-141] | 50 to 500 nM | 500 to 2500 nM |  | 
8 | 50 to 500 nM | Cc1sc2c(c1C)C(c1ccc(N3CCC(O)(CN4CCN(c5ccc([C@@H]6c7ccc(O)cc7CC[C@@H]6c6ccccc6)nn5)CC4)CC3)cc1)=N[C@@H](C)c1nnc(C)n1-2 [III-217] | < 50 nM | 50 to 500 nM |  | 
9 | 50 to 500 nM | CC1=C(c2c(F)cc(F)cc2F)[C@H](c2ccc(N3CCN(C(=O)C4CCN(c5ccc(C6=N[C@@H](C)c7nnc(C)n7-c7sc(C)c(C)c76)cc5)CC4)CC3)cc2)Oc2ccc(O)cc21 [V-15] | < 50 nM | 50 to 500 nM |  | 
10 | 50 to 500 nM | Cc1sc2c(c1C)C(c1ccc(N3CC(CN4CC(Oc5ccc([C@@H]6c7ccc(O)cc7CC[C@@H]6c6ccccc6)cc5)C4)C3)cc1)=N[C@@H](C)c1nnc(C)n1-2 [III-99] | 50 to 500 nM | 50 to 500 nM |  | 
11 | 50 to 500 nM | CC1=C(c2c(F)cc(F)cc2F)[C@@H](c2ccc(OCCN3CCCC4(CCN(c5ccc(C6=N[C@@H](C)c7nnc(C)n7-c7sc(C)c(C)c76)cc5)CC4)C3)cc2)Oc2ccc(O)cc21 [V-4] | 500 to 2500 nM | 500 to 2500 nM |  | 
12 | 50 to 500 nM | Cc1sc2c(c1C)C(c1ccc(N3CCC(O)(CN4CCN(c5cc(F)c([C@H]6c7ccc(O)cc7CC[C@H]6c6ccc(F)cc6)c(F)c5)CC4)CC3)cc1)=N[C@@H](C)c1nnc(C)n1-2 [III-237] | 50 to 500 nM | 500 to 2500 nM |  | 
13 | < 50 nM | Cc1sc2c(c1C)C(c1ccc(N3CCC(CN4CCN(c5ccc([C@@H]6c7ccc(O)cc7CC[C@@H]6c6ccccc6)cc5)CC4)CC3)cc1)=N[C@@H](C)c1nnc(C)n1-2 [III-5] | < 50 nM | 500 to 2500 nM |  | 
14 | < 50 nM | Cn1cc(-c2cc(C(C)(C)O)ccc2Oc2ccc(N3CCC4(CCN(CCOc5ccc(C(=O)c6c(-c7ccc(O)cc7)sc7cc(O)ccc67)cc5)CC4)C3)cc2)c2cc[nH]c2c1=O [I-35, 4-(2-(4-(8-(2-(4-(6-hydroxy-2-(4-hydroxyphenyl)benzo[b]thiophene-3-carbonyl)phenoxy)ethyl)-2,8-diazaspiro[4.5]decan-2-yl)phenoxy)-5-(2-hydroxypropan-2-yl)phenyl)-6-methyl-1,6-dihydro-7H-pyrrolo[2,3-c]pyridin-7-one] |  |  | < 50 nM | < 50 nM
15 | < 50 nM | Cc1sc2c(c1C)C(c1ccc(N3CC4(CC(CN5CCN(c6ccc(C7=C(c8ccccc8Cl)CCCc8cc(C(=O)O)ccc87)cc6)CC5)C4)C3)cc1)=N[C@@H](C)c1nnc(C)n1-2 [IV-59] | < 50 nM | 500 to 2500 nM |  | 

Continued, compound first:

Row | Structure (SMILES) | GI50 [3] | GI50 [1, 4] | GI50 [2, 5] | GI50 [1, 6] | GI50 [2, 7]
16 | Cc1sc2c(c1C)C(c1ccc(C3CCN(CC4(O)CCN(c5ccc([C@@H]6c7ccc(O)cc7CC[C@@H]6c6ccccc6)cc5)CC4)CC3)cc1)=N[C@@H](C)c1nnc(C)n1-2 [III-26] | 50 to 500 nM | < 50 nM | 50 to 500 nM |  | 
17 | Cc1sc2c(c1C)C(c1ccc(N3CCC(CC4(O)CCN(c5ccc([C@@H]6c7ccc(O)cc7CC[C@@H]6c6ccccc6)cc5)CC4)CC3)cc1)=N[C@@H](C)c1nnc(C)n1-2 [III-153] | 50 to 500 nM | < 50 nM | 500 to 2500 nM |  | 
18 | Cc1sc2c(c1C)C(c1ccc(C#CC3CC4(CCN(c5ccc([C@@H]6c7ccc(O)cc7CC[C@@H]6c6ccccc6)cc5)CC4)C3)cc1)=N[C@H](Cc1ncco1)c1nnc(C)n1-2 [III-19] | > 2500 nM | > 2500 nM | > 2500 nM |  | 
19 | Cc1sc2c(c1C)C(c1ccc(N3CCC(O)(CN4CCN(c5cc(F)c([C@H]6c7ccc(O)cc7CC[C@H]6c6ccccc6)cc5F)CC4)CC3)cc1F)=N[C@@H](C)c1nnc(C)n1-2 [III-303] | 50 to 500 nM | 50 to 500 nM | 50 to 500 nM |  | 
20 | Cc1sc2c(c1C)C(c1ccc(NC[C@@H]3CN(CCOc4ccc([C@@H]5c6ccc(O)cc6CC[C@@H]5c5ccccc5)cc4)CCO3)cc1)=NC(Cc1ncco1)c1nnc(C)n1-2 (stereo partly drawn) [III-39] | < 50 nM | < 50 nM | 50 to 500 nM |  | 
21 | Cc1sc2c(c1C)C(c1ccc(N3CCC(CN4CCN(c5ccc([C@@H]6c7ccc(O)cc7CC[C@@H]6c6ccccc6)cn5)CC4)CC3)cc1)=N[C@@H](Cc1ncco1)c1nnc(C)n1-2 [III-126] | 50 to 500 nM | < 50 nM | 50 to 500 nM |  | 
22 | CC1=C(c2c(F)cc(F)cc2F)C(c2ccc(N3CCN(CC4CCN(c5ccc(C6=N[C@@H](C)c7nnc(C)n7-c7sc(C)c(C)c76)cc5)CC4)CC3)cc2)Oc2ccc(O)cc21 (stereo partly drawn) [V-11] | 50 to 500 nM | 50 to 500 nM | 500 to 2500 nM |  | 
23 | COc1cc(N2CCN(CC3(O)CCN(c4ccc(C5=N[C@@H](C)c6nnc(C)n6-c6sc(C)c(C)c65)cc4)CC3)CC2)c(F)cc1[C@H]1c2ccc(O)cc2CC[C@H]1c1ccccc1 (single isomer, unassigned) [III-312] | 50 to 500 nM | 50 to 500 nM | 50 to 500 nM |  | 
24 | Cc1sc2c(c1C)C(c1ccc(N3CCC4(CC3)CCN(c3ccc([C@@H]5c6ccc(O)cc6CC[C@@H]5c5ccccc5)cc3)CC4)cc1)=N[C@@H](C)c1nnc(C)n1-2 [III-116] | 500 to 2500 nM | > 2500 nM | > 2500 nM |  | 
25 | Cc1sc2c(c1C)C(c1ccc(N3CCC[C@@H](CNCCOc4ccc([C@@H]5c6ccc(O)cc6CC[C@@H]5c5ccccc5)cc4)C3)cc1)=NC(Cc1ncco1)c1nnc(C)n1-2 (stereo partly drawn) [III-54] | 50 to 500 nM | 50 to 500 nM | 50 to 500 nM |  | 
26 | Cc1sc2c(c1C)C(c1ccc(N3CCC(C)(CNCCOc4ccc([C@@H]5c6ccc(O)cc6CC[C@@H]5c5ccccc5)cc4)CC3)cc1)=NC(Cc1ncco1)c1nnc(C)n1-2 (stereo partly drawn) [III-62] | 50 to 500 nM | < 50 nM | 50 to 500 nM |  | 
27 | Cc1sc2c(c1C)C(c1ccc(CC3CC4(CCN(CCOc5ccc(C(=O)c6c(-c7ccc(O)cc7)sc7cc(O)ccc67)cc5)CC4)C3)cc1)=N[C@@H](C)c1nnc(C)n1-2 [I-19, (S)-(6-hydroxy-2-(4-hydroxyphenyl)benzo[b]thiophen-3-yl)(4-(2-(2-(4-(2,3,6,9-tetramethyl-6H-thieno[3,2-f][1,2,4]triazolo[4,3-a][1,4]diazepin-4-yl)benzyl)-7-azaspiro[3.5]nonan-7-yl)ethoxy)phenyl)methanone] | < 50 nM |  |  | < 50 nM | 50 to 500 nM
